ChEMBL document CHEMBL5550160, “Leveraging a rationally designed veliparib-based anilide eliciting anti-leukemic effects for the design of pH-responsive polymer nanoformulation” (Eur J Med Chem, 2024)
Activity calls are given as the source filed them. The rule behind the calls is not given here.

How the values were obtained:
[1] = molecular target: T1, Histone deacetylase 1 (Homo sapiens, UniProt Q13547); test: Inhibition of HDAC1 (unknown origin) using p53 residues 379 to 382 [RHKK(Ac)] as fluorogenic substrate assessed as residual activity at 3.70 x 10^-7M (reference value: 98.06%); conditions: dose 3.7 10^-7M
T1 sequence (Q13547 whole entry, the tested form may be a part): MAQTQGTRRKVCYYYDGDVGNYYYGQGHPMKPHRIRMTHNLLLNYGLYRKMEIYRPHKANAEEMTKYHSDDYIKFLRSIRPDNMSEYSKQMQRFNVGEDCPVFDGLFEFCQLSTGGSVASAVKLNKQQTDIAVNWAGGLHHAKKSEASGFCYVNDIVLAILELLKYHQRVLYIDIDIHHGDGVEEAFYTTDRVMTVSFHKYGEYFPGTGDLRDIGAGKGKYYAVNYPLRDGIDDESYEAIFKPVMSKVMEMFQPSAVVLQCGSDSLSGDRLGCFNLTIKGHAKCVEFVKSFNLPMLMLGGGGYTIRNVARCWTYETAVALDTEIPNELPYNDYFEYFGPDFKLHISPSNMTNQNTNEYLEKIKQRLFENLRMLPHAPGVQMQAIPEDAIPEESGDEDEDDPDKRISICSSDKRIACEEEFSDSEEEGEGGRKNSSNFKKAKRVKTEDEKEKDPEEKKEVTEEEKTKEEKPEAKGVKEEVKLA

[2] = molecular target: T1, Histone deacetylase 1; test: Inhibition of HDAC1 (unknown origin) using p53 residues 379 to 382 [RHKK(Ac)] as fluorogenic substrate assessed as residual activity at 4.12 x 10^-8M (reference value: 98.06%); conditions: dose 4.12 10^-8M
[3] = molecular target: T1, Histone deacetylase 1; test: Inhibition of HDAC1 (unknown origin) using p53 residues 379 to 382 [RHKK(Ac)] as fluorogenic substrate assessed as residual activity at 1.37 x 10^-8M (reference value: 98.06%); conditions: dose 1.37 10^-8M
[4] = molecular target: T2, Histone deacetylase 2 (Homo sapiens, UniProt Q92769); test: Inhibition of HDAC2 (unknown origin) assessed as residual activity at 1.52 x 10^-9M (reference value: 99.81%); conditions: dose 1.52 10^-9M
T2 sequence (Q92769 whole entry): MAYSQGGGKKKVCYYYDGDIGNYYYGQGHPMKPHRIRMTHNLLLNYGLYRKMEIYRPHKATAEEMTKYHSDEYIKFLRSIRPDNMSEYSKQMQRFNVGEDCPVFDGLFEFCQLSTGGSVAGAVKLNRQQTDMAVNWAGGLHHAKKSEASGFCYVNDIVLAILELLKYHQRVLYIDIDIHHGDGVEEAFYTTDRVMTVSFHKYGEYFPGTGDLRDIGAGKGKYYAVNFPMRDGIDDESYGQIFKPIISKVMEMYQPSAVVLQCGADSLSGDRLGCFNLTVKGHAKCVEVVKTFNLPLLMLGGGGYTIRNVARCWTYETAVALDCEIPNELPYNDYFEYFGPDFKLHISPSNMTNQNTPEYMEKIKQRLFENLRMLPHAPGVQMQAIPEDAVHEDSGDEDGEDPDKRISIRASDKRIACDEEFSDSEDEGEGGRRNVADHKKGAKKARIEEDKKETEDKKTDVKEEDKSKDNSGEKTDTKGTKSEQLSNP

[5] = molecular target: T2, Histone deacetylase 2; test: Inhibition of HDAC2 (unknown origin) assessed as residual activity at 5.08 x 10^-10M (reference value: 99.81%); conditions: dose 5.08 10^-10M
[6] = molecular target: Histone deacetylase 5 (Homo sapiens) (UniProt Q9UQL6); test: Inhibition of HDAC5 (unknown origin) assessed as residual activity at 1.37 x 10^-8M (reference value: 100%); conditions: dose 1.37 10^-8M
Sequence of Histone deacetylase 5 (Homo sapiens) (Q9UQL6 whole entry, the tested form may be a part): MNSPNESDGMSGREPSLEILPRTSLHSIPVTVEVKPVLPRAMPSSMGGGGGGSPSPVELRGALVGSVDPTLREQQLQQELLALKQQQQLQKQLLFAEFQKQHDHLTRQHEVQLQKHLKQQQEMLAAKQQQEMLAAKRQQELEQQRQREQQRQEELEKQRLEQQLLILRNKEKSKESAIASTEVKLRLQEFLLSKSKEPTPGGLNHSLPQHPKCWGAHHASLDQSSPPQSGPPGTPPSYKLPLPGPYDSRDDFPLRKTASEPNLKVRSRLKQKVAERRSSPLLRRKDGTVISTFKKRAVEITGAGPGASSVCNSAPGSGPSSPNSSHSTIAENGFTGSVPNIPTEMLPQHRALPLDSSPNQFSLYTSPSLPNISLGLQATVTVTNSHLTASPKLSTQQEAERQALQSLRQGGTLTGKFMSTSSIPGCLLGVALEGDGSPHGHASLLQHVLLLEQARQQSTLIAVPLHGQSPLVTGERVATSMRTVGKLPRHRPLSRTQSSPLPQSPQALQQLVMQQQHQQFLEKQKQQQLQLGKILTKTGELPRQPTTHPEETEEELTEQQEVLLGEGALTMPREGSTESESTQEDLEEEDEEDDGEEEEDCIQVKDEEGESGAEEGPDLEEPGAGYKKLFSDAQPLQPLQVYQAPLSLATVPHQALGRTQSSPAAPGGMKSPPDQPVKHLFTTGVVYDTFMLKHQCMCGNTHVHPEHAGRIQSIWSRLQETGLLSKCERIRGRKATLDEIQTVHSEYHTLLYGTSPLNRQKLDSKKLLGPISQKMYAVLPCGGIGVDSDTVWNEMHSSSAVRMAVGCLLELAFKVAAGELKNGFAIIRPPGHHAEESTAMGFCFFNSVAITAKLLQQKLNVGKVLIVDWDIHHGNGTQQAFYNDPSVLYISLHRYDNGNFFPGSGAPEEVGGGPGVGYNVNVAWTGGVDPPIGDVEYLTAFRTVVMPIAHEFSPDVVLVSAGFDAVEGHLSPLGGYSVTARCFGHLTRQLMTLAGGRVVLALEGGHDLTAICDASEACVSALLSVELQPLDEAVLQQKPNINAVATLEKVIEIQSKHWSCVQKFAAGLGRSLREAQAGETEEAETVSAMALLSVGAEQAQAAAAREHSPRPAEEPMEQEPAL

[7] = molecular target: T3, Protein deacetylase HDAC6 (Homo sapiens) (UniProt Q9UBN7); test: Inhibition of HDAC6 (unknown origin) using p53 residues 379 to 382 [RHKK(Ac)] as fluorogenic substrate assessed as residual activity at 1.37 x 10^-8M (reference value: 101.06%); conditions: dose 1.37 10^-8M
T3 sequence (whole entry): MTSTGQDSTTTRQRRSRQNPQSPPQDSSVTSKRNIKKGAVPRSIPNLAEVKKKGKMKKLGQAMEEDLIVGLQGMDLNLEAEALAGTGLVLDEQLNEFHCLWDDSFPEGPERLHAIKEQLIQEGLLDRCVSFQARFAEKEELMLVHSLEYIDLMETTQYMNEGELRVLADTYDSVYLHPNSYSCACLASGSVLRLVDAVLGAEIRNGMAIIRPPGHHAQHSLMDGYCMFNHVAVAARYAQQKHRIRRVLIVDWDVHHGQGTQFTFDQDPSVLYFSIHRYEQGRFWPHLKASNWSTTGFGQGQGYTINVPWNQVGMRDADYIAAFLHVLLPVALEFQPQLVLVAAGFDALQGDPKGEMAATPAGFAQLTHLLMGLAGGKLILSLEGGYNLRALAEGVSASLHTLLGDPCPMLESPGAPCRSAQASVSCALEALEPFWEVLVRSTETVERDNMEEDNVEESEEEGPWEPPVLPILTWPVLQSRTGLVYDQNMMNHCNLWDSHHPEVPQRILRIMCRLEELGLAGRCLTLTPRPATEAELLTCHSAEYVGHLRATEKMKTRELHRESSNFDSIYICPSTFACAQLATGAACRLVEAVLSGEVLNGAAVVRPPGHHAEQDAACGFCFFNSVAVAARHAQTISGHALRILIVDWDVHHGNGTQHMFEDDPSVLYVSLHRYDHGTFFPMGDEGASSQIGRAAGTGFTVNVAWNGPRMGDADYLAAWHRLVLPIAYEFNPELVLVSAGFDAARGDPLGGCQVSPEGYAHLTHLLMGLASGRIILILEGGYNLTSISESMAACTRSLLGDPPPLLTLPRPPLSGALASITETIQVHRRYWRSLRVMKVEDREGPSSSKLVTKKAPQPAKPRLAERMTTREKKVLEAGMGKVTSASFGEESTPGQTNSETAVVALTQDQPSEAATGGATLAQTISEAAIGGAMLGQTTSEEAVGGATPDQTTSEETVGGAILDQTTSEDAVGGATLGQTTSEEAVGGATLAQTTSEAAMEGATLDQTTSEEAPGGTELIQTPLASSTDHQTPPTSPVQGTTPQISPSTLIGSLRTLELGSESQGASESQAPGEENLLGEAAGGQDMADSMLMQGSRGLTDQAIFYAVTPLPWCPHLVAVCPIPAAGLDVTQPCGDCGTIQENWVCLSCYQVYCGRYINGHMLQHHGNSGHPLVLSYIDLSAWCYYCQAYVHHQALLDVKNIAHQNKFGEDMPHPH

[8] = molecular target: T4, Histone deacetylase 7 (Homo sapiens) (UniProt Q8WUI4); test: Inhibition of HDAC7 (unknown origin) assessed as residual activity at 1.37 x 10^-8M (reference value: 102.66%); conditions: dose 1.37 10^-8M
T4 sequence (whole entry): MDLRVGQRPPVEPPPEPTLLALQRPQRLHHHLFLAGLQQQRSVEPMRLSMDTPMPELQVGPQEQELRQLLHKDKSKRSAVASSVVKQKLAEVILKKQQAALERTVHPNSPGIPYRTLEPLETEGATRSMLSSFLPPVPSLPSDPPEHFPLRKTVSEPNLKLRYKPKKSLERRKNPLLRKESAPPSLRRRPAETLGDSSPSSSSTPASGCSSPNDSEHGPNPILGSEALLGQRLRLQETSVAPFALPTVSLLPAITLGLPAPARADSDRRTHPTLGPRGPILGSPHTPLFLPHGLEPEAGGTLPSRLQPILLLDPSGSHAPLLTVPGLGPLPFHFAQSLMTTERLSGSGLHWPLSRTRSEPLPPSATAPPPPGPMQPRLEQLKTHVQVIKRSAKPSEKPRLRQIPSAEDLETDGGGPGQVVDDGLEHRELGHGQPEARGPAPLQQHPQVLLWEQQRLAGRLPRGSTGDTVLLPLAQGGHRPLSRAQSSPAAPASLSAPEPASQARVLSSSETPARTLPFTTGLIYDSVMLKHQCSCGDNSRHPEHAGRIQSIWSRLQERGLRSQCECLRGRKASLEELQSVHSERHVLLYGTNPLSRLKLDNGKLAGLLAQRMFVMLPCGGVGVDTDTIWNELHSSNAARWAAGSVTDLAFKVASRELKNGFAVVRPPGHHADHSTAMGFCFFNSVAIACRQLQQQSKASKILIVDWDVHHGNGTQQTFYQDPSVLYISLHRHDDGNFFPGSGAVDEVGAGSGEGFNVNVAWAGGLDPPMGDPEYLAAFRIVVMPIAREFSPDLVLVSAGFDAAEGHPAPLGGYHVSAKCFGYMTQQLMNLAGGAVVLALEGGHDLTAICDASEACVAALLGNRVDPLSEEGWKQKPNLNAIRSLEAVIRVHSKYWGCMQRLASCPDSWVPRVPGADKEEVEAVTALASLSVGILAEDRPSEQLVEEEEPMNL

[9] = molecular target: Histone deacetylase 9 (Homo sapiens) (UniProt Q9UKV0); test: Inhibition of HDAC9 (unknown origin) assessed as residual activity at 4.12 x 10^-8M (reference value: 97.55%); conditions: dose 4.12 10^-8M
Sequence of Histone deacetylase 9 (Homo sapiens) (Q9UKV0 whole entry): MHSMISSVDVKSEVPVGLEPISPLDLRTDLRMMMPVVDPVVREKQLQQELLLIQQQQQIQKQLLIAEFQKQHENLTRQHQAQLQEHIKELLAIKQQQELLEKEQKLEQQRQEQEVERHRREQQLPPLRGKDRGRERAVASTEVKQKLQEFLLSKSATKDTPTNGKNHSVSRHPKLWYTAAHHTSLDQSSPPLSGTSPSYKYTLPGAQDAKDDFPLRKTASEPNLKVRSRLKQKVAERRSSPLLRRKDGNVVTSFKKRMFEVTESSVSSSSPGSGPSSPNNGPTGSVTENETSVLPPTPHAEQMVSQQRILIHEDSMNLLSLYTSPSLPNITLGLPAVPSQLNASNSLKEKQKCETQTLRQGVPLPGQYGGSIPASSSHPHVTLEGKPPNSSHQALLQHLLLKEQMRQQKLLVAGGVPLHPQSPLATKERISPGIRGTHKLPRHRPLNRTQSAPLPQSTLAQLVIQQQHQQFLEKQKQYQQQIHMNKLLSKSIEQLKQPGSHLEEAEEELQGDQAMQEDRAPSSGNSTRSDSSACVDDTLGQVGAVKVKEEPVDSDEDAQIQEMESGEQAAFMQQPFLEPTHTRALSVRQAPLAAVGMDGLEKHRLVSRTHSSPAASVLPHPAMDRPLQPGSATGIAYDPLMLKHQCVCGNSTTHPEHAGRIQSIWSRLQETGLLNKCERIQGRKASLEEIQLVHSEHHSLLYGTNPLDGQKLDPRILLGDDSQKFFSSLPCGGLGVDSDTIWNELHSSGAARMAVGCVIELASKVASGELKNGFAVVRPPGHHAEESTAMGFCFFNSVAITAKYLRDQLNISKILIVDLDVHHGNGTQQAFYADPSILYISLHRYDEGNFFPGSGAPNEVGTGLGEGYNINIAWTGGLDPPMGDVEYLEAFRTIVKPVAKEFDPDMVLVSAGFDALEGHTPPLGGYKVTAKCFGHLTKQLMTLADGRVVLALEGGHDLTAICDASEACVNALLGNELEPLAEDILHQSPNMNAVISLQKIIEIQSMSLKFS

[10] = tested on: HL-60; test: Induction of cell cycle arrest in G0/G1 phase in human HL-60 cells assessed as downregulation of cyclin D1 protein expression at 0.5 to 1 times IC50 by Western blot analysis; format: functional, cell-based

Q: How did the Activity [1] turn out when NC(=O)c1cccc2[nH]c(-c3ccc(NCc4ccc(C(=O)Nc5ccccc5N)cc4)cc3)nc12 was run?
A: 16.9%

Q: And the Activity [2]?
A: 51.3%

Q: What about the Activity [3] of the same compound?
A: 73.9%

Q: And the Activity [4]?
A: 98.2%

Q: And the Activity [5]?
A: 98.2%

Q: And the Activity [6]?
A: 84%

Q: What about the Activity [7] of the same compound?
A: 103%

Q: What about the Activity [8] of the same compound?
A: 103%

Q: What about the Activity [9] of the same compound?
A: 102%

Q: And the Activity [10]?
A: Active
